What follows are compounds tested against L-lactate dehydrogenase (Plasmodium falciparum) (UniProt Q27743) (assay: inhibitory activity against Plasmodium falciparum LDH (pLDH)).

Structure (SMILES)	Ki [µM]
Cc1cc2c(C)c(O)c(O)c(C(=O)O)c2cc1C [2,3-Dihydroxy-4,6,7-trimethyl-naphthalene-1-carboxylic acid]	13
Cc1ccc2c(C(=O)O)c(O)c(O)c(C)c2c1 [2,3-Dihydroxy-4,6-dimethyl-naphthalene-1-carboxylic acid]	22
Cc1cc2c(C(=O)O)c(O)c(O)c(C(C)C)c2cc1C [2,3-Dihydroxy-4-isopropyl-6,7-dimethyl-naphthalene-1-carboxylic acid]	1
Cc1ccc2c(C(=O)O)c(O)c(O)c(C(C)C)c2c1 [2,3-Dihydroxy-4-isopropyl-6-methyl-naphthalene-1-carboxylic acid]	2
CCCc1c(O)c(O)c(C(=O)O)c2ccc(C)cc12 [2,3-Dihydroxy-6-methyl-4-propyl-naphthalene-1-carboxylic acid]	6

Results, then the compound that gave them:

Ki [µM]	Structure (SMILES)
0.2	Cc1cc2c(C(C)C)c(O)c(O)c(C(=O)O)c2cc1Cc1ccc(C(F)(F)F)cc1 [2,3-Dihydroxy-4-isopropyl-6-methyl-7-(4-trifluoromethyl-benzyl)-naphthalene-1-carboxylic acid]
8	Cc1cc2c(C)c(O)c(O)c(C(=O)O)c2cc1Cc1ccccc1 [7-Benzyl-2,3-dihydroxy-4,6-dimethyl-naphthalene-1-carboxylic acid]
0.7	Cc1cc2c(C(C)C)c(O)c(O)c(C(=O)O)c2cc1Cc1ccccc1 [7-Benzyl-2,3-dihydroxy-4-isopropyl-6-methyl-naphthalene-1-carboxylic acid]

From BindingDB's records for doi:10.1021/jm980334n (University of New Mexico School of Medicine, 1998)
